In patent US8563503B2, “Antibiotic, its nucleotide sequence, methods of construction and uses thereof” (Protein Design Lab. Ltd., priority 2011, dated 2013):
≈ marks a conversion by molar mass, not a printed value. Entries after “also recorded” stand apart in the source; their conditions may differ.

Legend:
[1] = system: Staphylococcus aureus MRSA BAA-42; assay: MIC against the infecting strain (Table 2); type: cell-based; settings: Staphylococcus aureus
Description: (§1) (3) Culture Solution • MH Broth Culture Solution: 25 g was added into […] distilled water, heat to dissolve, subpackaged, autoclaved at 116° C. for 20 minutes, and MH Solid Culture Medium, 36 g was added into 1000 ml distilled water, autoclaved at 116° C. for 20 minutes, used for drug sensitive test of Gram-positive and negative aerobic bacteria. • Blood culture solution for Enterococcus faecalis, which was prepared by adding defibration rabbit blood into the MH culture solution by 5-10% and cultured at 37° C. in 5% CO2 for 24 hours. 2. Experimental Methods (1) The Measurement of Minimum Inhibitory Concentration (MIC) • The Minimum Inhibitory Concentration (MIC) of PMC-SA1 was measured by Agar Doubling Dilution Method. The bacterium was inoculated on the surface of agar plate containing different concentration of drugs by multipoint inoculate instrument (Deneley A400). The bacterial content per point was 10^5 CFU/ml. After incubated at 37° C. for 18-24 hours, the result can be observed. The least concentration of drugs in plate culture solution without bacterium growing was Minimum Inhibitory Concentration (MIC) of the drug to the said bacteria. 3. Results

[2] = system: Staphylococcus aureus ATCC 29213; assay: MIC against the infecting strain (Table 2); type: cell-based; settings: ATCC29213
Description: as §1

E. coli 02-1-65 [3] = assay: MIC against the infecting strain (Table 2); type: cell-based; settings: Escherichia coli, 02165
Description: as §1

[4] = system: Staphylococcus epidermidis (MSSE strain); assay: MIC by Agar Doubling Dilution Method, clinical isolates; type: cell-based; settings: Staphylococcus epidermidis
Description: as §1

[5] = system: Staphylococcus epidermidis (MRSE); assay: as above; type: cell-based; settings: Staphylococcus epidermidis, MRSE
Description: as §1

[6] = system: Staphylococcus aureus (MRSA); assay: as above; type: cell-based; settings: Staphylococcus aureus, MRSA
Description: as §1

[7] = system: Staphylococcus aureus (MSSA); assay: as above; type: cell-based; settings: Staphylococcus aureus, MSSA
Description: as §1

E. coli = assay: as above; type: cell-based; settings: Escherichia coli
Description: as §1

Baumanii = assay: as above; type: cell-based
Description: as §1

Enterococcus = assay: as above; type: cell-based, Enterococcus faecalis; settings: Enterococcus
Description: as §1

Enterococcus ATCC 700802 [8] = assay: Protection test in vivo (intravenous injection) of infected mice; parameters: species or system Kungming mice; settings: Enterococcus, ATCC700802
Description: (§2) The drugs used in this embodiment were same with that used in embodiment 4.
(§3) The above drugs were dissolved and diluted by sterilized water, and the injection concentrations of each drug were 10 mg/kg, 5 mg/kg and 2.5 mg/kg.
(§4) After given intraperitoneal injection of fatal dose of above-mentioned bacteria, the mice of each drug experimental group respectively were given once intravenous injection of the drug by 10 mg, 5 mg, 2.5 mg/kg. The results were observed per 24 hours for 7-14 days. The positive result is mice's death.

[9] = system: Staphylococcus aureus MRSA BAA-42; assay: as above; parameters: species or system Kungming mice; settings: Staphylococcus aureus
Description: as §2, §3, §4

[10] = system: Staphylococcus aureus ATCC 29213; assay: as above; parameters: species or system Kungming mice; settings: Staphylococcus aureus, ATCC29213
Description: as §2, §3, §4

E. coli 02-1-65 [11] = assay: as above; parameters: species or system Kungming mice; settings: Escherichia coli, 02165
Description: as §2, §3, §4

Enterococcus ATCC 700802 [12] = assay: MIC against the infecting strain (Table 2); type: cell-based, Enterococcus faecalis; settings: ATCC700802
Description: as §1

[13] = system: methicillin-resistant Staphylococcus aureus ATCC BAA-42; assay: Bacteria growth curve (A595 nm), comparison of the novel antibiotics; type: cell-based; settings: drug 5 μg/ml, 37° C., A595 nm per hour
Description: The following experiment was set for comparing bacteriostasis effects of 6 kinds of the novel antibiotics. The experimental bacteriaum was United States Standard Strain methicillin-resistant Staphylococcus aureus ATCC BAA-42. 5 microliter of bacteria solution (10^6 CFU/ml level bacterium amount) was added into 10 ml culture solution containing 1% peptone, 1% NaCl, 0.5% yeast extract, 0.5% glucose and 0.1% K2HPO4, total of 8 groups were prepared. The first group as control was added 0.3 M NaCl+50 mM boric acid buffer fluid by the same volume as that of antibiosis polypeptide liquid added in any experimental groups, the second group was added penicillin G sodium by 5 μg/ml, PMC-SA1, PMC-SA2, PMC-SA3, PMC-SA4, PMC-SE and PMC-PA were added in the other experimental groups with preservative fluid being 0.3 M NaCl+50 mM boric acid buffer fluid by 5 ug/ml.
(§5) The solution of above groups was put into 100 ml conical flask, 200 rpm, grew at 37° C. 100 μl was sampled per hour, and added onto 96-pore ELISA plate and measured bacteria grown cloudiness by spectrophotometer (A595 nm) color comparison. The bacteria growth curve was drawn up to compare the bacteriostasis efficacy of antibiosis polypeptide.

[14] = system: Staphylococcus epidermidis reference culture No. 26069; assay: Bacteria growth curve (A595 nm cloudiness), Staphylococcus epidermidis; type: cell-based; settings: drug 2 μg/ml, 37° C., A595 nm per hour
Description: The bacterium is Staphylococcus epidermidis reference culture No. 26069, purchased from China Center of Culture Collection (National Institute for the Control of Pharmaceutical and Biological Products). 3 microliter of bacterium solution (10^6 CFU/ml level bacterium amount) was added into 10 ml culture solution containing 1% peptone, 1% NaCl, 0.5% yeast extract, 0.5% glucose and 0.1% K2HPO4. Totally four groups were prepared. The first group as control was added 0.3M NaCl+50 mM boric acid buffer fluid by the same volume with that of antibiosis polypeptide liquid added in any experimental groups, the second group was added penicillin G sodium by 2 μg/ml, PMC-SA1 and PMC-SE was added in the other experimental groups by 2 μg/ml (0.3 M NaCl+50 mM boric acid buffer fluid was preservative fluid).
as §5, with “to measure” for “and measured”, “the novel antibiotics.” for “antibiosis polypeptide.”

[15] = Immunization of mice, valence of mouse sera by indirect ELISA; type: in vivo; settings: from valence of mouse sera
Description: Allosteric peptide of Colicin Ia, i.e. Ia′, PMC-SA1 obtained in embodiment 1, wild-type colicin Ia and the anti-Staphylococcus aureus peptide (ZL01128836.1) which invented by the present inventor were taken respectively to immunize mice. After admixturing with the adjuvant, the above proteins were interaperitonea injected respectively to the mice by 50 μg per mouse for one time of foundational quantity and 50 μg per mouse for one time of additional quantity totally 5 times by two weeks interval. Indirect ELISA detection method was applied to detect the valence of mouse sera (Xiao Yi, et. al., Preparation and preliminary characterization of monoclonal antibodies against Pheromonicin-and-Staphylococcus aureus, Shanxi Medical Journal, 35(1): 6-7, 32 (2006)). The valence of mouse sera which immunized by wild type colicin Ia as well as anti-Staphylococcus aureus polypeptide (ZL01128836.1) was 10^−4 to 10^−5, while the valence of mouse sera which immunized by allosteric peptide of colicin Ia and PMC-SA1 was 10^−2 to 10^−3.

In the case of CN[C@H](CC(C)C)C(=O)N[C@H]1C(=O)N[C@@H](CC(N)=O)C(=O)N[C@H]2C(=O)N[C@H]3C(=O)N[C@H](C(=O)N[C@H](C(=O)O)c4cc(O)cc(O)c4-c4cc3ccc4O)[C@H](O)c3ccc(c(Cl)c3)Oc3cc2cc(c3O[C@@H]2O[C@H](CO)[C@@H](O)[C@H](O)[C@H]2O[C@H]2C[C@](C)(N)[C@H](O)[C@H](C)O2)Oc2ccc(cc2Cl)[C@H]1O [Vancomycin], the MIC [1] is reported as 0.5 µg/mL (≈ 0.345 µM), the MIC [2] is reported as 0.5 µg/mL (≈ 0.345 µM) and the MIC (E. coli 02-1-65 [3]) is reported as 128 µg/mL (≈ 88.3 µM). It also gave an MIC50 [4] of 0.5 µg/mL (≈ 0.345 µM), an MIC90 [4] of 0.5 µg/mL (≈ 0.345 µM) and an MIC ([4]; read-out: Scope of MIC) of 0.06 to 0.5 µg/mL (≈ 0.0414 to 0.345 µM). For the same molecule, the MIC50 [5] was 0.5 µg/mL (≈ 0.345 µM), the MIC90 [5] was 1 µg/mL (≈ 0.69 µM) and the MIC ([5]; read-out: Scope of MIC) was 0.25 to 2 µg/mL (≈ 0.173 to 1.38 µM). It also gave an MIC50 [6] of 0.25 µg/mL (≈ 0.173 µM), an MIC90 [6] of 1 µg/mL (≈ 0.69 µM) and an MIC ([6]; read-out: Scope of MIC) of 0.004 to 2 µg/mL (≈ 0.00276 to 1.38 µM). For the same molecule, the MIC50 [7] was 0.5 µg/mL (≈ 0.345 µM), the MIC90 [7] was 1 µg/mL (≈ 0.69 µM) and the MIC ([7]; read-out: Scope of MIC) was 0.03 to 1 µg/mL (≈ 0.0207 to 0.69 µM). The MIC50 (E. coli) was > 128 µg/mL, the MIC90 (E. coli) was > 128 µg/mL and the MIC (E. coli; read-out: Scope of MIC) was > 128 µg/mL. For the same molecule, the MIC50 (Baumanii) was > 128 µg/mL, the MIC90 (Baumanii) was > 128 µg/mL and the MIC50 (Enterococcus) was 1 µg/mL (≈ 0.69 µM). The MIC90 (Enterococcus) was 2 µg/mL (≈ 1.38 µM), the MIC (Enterococcus; read-out: Scope of MIC) was 0.5 to 50 µg/mL (≈ 0.345 to 34.5 µM) and the ED50 (Enterococcus ATCC 700802 [8]) was 3.66 mg/kg. For the same molecule, the ED50 [9] was 3.54 mg/kg, the ED50 [10] was 2.42 mg/kg and the ED50 (E. coli 02-1-65 [11]) was > 40.1 mg/kg. For the same molecule, the MIC (Enterococcus ATCC 700802 [12]) was > 16 µg/mL.

B1: PMC-SE: Staphylococcus epidermidis pheromone linked to C-terminus of allosteric colicin Ia′; SEQ ID NO. 21; plasmid pBHC-SE (protein)
chain: SDPVRITNPAAESLGYDSDGREIMGVDIYLNPPRVDVFKGTPPAWSSFGNKTIWGGNEWVDDSPTRSDIEKRDKEITAYKNTLSAQQKENENKRTEAGKRLSAAIAAREKDENTLKTLRAGNADAADITRQEFRLLQAELREYGFRTEIAGYDALRLHTESRMLFADADSLRISPREARSLIEQAEKRQKDAQNADKKAADMLAEYERRKGILDTRLSELEKNGGAALAVLDAQQARLLGQQTRNDRAISEARNKLSSVTESLNTARNALTRAEQQLTQQKNTPDGKTIVSPEKFPGRSSTNHSIVVSGDPRFAGTIKITTSAVIDNRANLNYLLSHSGLDYKRNILNDRNPVVTEDVEGDKKIYNAEVAEWDKLRQRLLDARNKITSAESAVNSARNNLSARTNEQKHANDALNALLKEKENIRNQLSGINQKIAEEKRKQDELKATKDAINFTTEFLKSVSEKYGAKAEQLAREMAGQAKGKKIRNVEEALKTYEKYRADINKKINAKDRAAIAAALESVKLSDISSNLNRFSRGLGYAGKFTSLADWITEFGKAVRTENWRPLFVKTETIIAGNAATALVALVFSILTGSALGIIGYGLLMAVTGALIDESLVEKANKFWGIDSVCASYF
modifications: The peptide of PMC-SE
notes: Staphylococcus epidermidis pheromone linked to C-terminus of allosteric colicin Ia′; 21; plasmid pBHC-SE
In the case of B1, the “bacteriostasis effect on growth of methicillin-resistant Staphylococcus aureus (bacteria growth curve)” value [13] is reported as “less better” and the “growth of Staphylococcus epidermidis (bacteria growth curve)” value [14] is reported as “effectively restrained; also recorded: completely restrained”.

B2: allosteric peptide of colicin Ia: wild-type Colicin Ia with mutations G11A, H22R, A26G, V31L and H40K; SEQ ID NO: 36 (protein)
chain: SDPVRITNPAAESLGYDSDGREIMGVDIYLNPPRVDVFKGTPPAWSSFGNKTIWGGNEWVDDSPTRSDIEKRDKEITAYKNTLSAQQKENENKRTEAGKRLSAAIAAREKDENTLKTLRAGNADAADITRQEFRLLQAELREYGFRTEIAGYDALRLHTESRMLFADADSLRISPREARSLIEQAEKRQKDAQNADKKAADMLAEYERRKGILDTRLSELEKNGGAALAVLDAQQARLLGQQTRNDRAISEARNKLSSVTESLNTARNALTRAEQQLTQQKNTPDGKTIVSPEKFPGRSSTNHSIVVSGDPRFAGTIKITTSAVIDNRANLNYLLSHSGLDYKRNILNDRNPVVTEDVEGDKKIYNAEVAEWDKLRQRLLDARNKITSAESAVNSARNNLSARTNEQKHANDALNALLKEKENIRNQLSGINQKIAEEKRKQDELKATKDAINFTTEFLKSVSEKYGAKAEQLAREMAGQAKGKKIRNVEEALKTYEKYRADINKKINAKDRAAIAAALESVKLSDISSNLNRFSRGLGYAGKFTSLADWITEFGKAVRTENWRPLFVKTETIIAGNAATALVALVFSILTGSALGIIGYGLLMAVTGALIDESLVEKANKFWGI
modifications: allosteric peptide of colicin Ia
In the case of B2, the “possibility of causing host allergic reaction relative to anti-Staphylococcus aureus polypeptide” value [15] is reported as “lower one to two order of magnitude”.
